Experimental data reported in EP0431972A2, “Macrocyclic lactones having renin inhibiting properties” (MERCK & CO. INC., priority 1989, dated 1991).
Square brackets hold non-standard residues; d marks the D form. Peptide text beside a SMILES is read from it. * marks the point of attachment. Sta = CC(C)C[C@H](N)[C@@H](O)CC(=O)O; Isovaleryl = CC(C)CC(=O)*

Tests used:
human plasma renin = human plasma renin IC50 determination; type: biochemical; conditions: against human plasma renin, pH 7.4
Protocol: The following method was used for in vitro evaluation of the renin inhibitors of Formuta t: • The human plasma renin IC50 values for inhibitors of Formula I were determined at pH 7.4 following the procedure described in J. Boger, L.S. Payne, D.S. Perlow, N.S. Lohr, M. Poe, E.H. Blaine, E.H. Elm, T.W. Schorn, B.I. Lamont, T.-Y. Lin, M. Kawai, D.H. Rich and D.F. Veber, J. Med. Chem., 28, 1779 (1985).

[1] = tested on: conscious sodium-deficient Rhesus monkeys; assay: intravenous evaluation of renin inhibitors in conscious sodium-deficient Rhesus monkeys (blood pressure lowering); type: in vivo; conditions: i.v. bolus injection
Text: The following methods were used for in vivo evaluation of the renin inhibitors of Formua I : Intravenous evaluation of renin inhibitors in conscious sodium-deficient Rhesus monkeys : Rhesus monkeys, male and female, weighing 2.6-4.5 Kg, were surgically prepared with chronic arterial and venous catheters and vascular access ports for direct monitoring of mean arterial pressure (MAPI) and heart rate (HR). The animals were maintained on a low sodium diet (1.2 mmol Nalday) plus fruit for a week, and administered LASIX (furosemide) at 2.5 mg/Kg, intramuscularly the evening prior to the experiment The animals had been trained to sit quietly in the chairs with waterAD LIBIUM for the duration of the experiment. The inhibitors were administered by bolus injection using 0.5% acetic acid-5% dextrose in water as the vehicle (0.4 ml/Kg), and MAP and HRwere measured. Blood samples were withdrawn at different time intervals beginning at the nadir of hypotensive response. PRA was determined as described above. […] A projected ED50 dose for each inhibitorwas calculated using the following formula: ED50 (Test Inhibitor, umoles/Kg) = ED50 (SCRIP) X [IC50 (Test Inhibitor)/IC50 (SCRIP)], where the IC50 values were determined against human plasma renin. […] Percent inhibition of monkey PRA, changes in MAP and HR were calculated and plotted against time. […]

Compound: CC(C)CC(=O)N[C@@H](Cc1c[nH]cn1)C(=O)N1CCC[C@H]1C(=O)N[C@@H](Cc1ccccc1)C(=O)N[C@@H](Cc1c[nH]cn1)C(=O)N[C@@H](CC(C)C)[C@@H](O)CC(=O)N[C@@H](CC(C)C)C(=O)N[C@@H](Cc1ccccc1)C(N)=O [SCRIP, Iva-His-Pro-Phe-His-Sta-Leu-Phe-NH2] (Isovaleryl-HPFH[Sta]LF-NH2)
- IC50 (human plasma renin): 3.7 nM
- i.v. dose of the standard inhibitor required to lower blood pressure by 50% of the maximal response (ED50) [1]: 0.039 µmol/kg
